Test results as given in patent US5942511A, “Allylthiopyridazine derivatives and process for preparing the same” (Kwon; Soon Kyoung, priority 1998, dated 1999).

Legend:
[1] = test system: serum ALT (alanine aminotransferase); experiment: Effect of inhibiting hepatic disorder induced by carbon tetrachloride: serum ALT; format: in vivo, male ICR mice; conditions: CCl4 100 μl/kg i.p., compound 50 mg/kg per day oral, 3 days; for Serum ALT value: mean±SE
Description: First, the effects of allylthiopyridazine derivative of formula (I) for prevention and treatment of hepatic diseases was examined using carbon tetrachloride model and acetaminophen model.
Carbon tetrachloride model [see, Philippe letteron et al., Biochemical Pharmacology, 39, 12, 2027-2034, 1990] is most frequently used as an experimental model of hepatic disorder and has been established on the basis of the fact that carbon tetrachloride is converted into trichloromethyl free radical (CCl3 .), a highly toxic metabolite, by the action of cytochrome P-450 in body. This metabolite strongly binds with thiol group of liver microsomal membrane protein to produce a lipid radical, which is then converted into peroxy radical in the presence of oxygen, thereby stimulating the peroxidation reaction of membrane lipid. That is, carbon tetrachloride inhibits protein biosynthesis in liver, increases blood ALT (alanine aminotransferase) and causes centrilobular necrosis of liver cells.
(§1) In the present invention, the inhibiting effect of the compound of formula (I) on hepatic disorder, induced by carbon tetrachloride and acetaminophene, was determined after oral administration of the novel compound according to the present invention to mouse as the experimental animal for 3 days. The degree of liver damage in respective experimental animal was determined by measuring ALT and LDH levels in blood [see, Biol. Pharm. Bull., 20, 4, 381-385, 1997; Toxicology and Applied Pharmacology, 95, 1-11, 1988], and further by removing the liver, staining (×100) the liver with hematoxylin and eosin and then observing with microscope to examine the degree of hepatocyte necrosis.
Effect of inhibiting hepatic disorder induced by carbon tetrachloride
(§2) The liver protective effect of the compound according to the present invention was examined according to the known method [see, Philippe letteron et al., Biochemical Pharmacology, 39, 12, 2027-2034, 1990] as specifically described below.
(§3) The compound according to the present invention was suspended in corn oil and the resulting suspension was administered in an amount of 1.0 ml/kg. Each group was composed of 3 to 10 male ICR mice (5-6 weeks) and the test compound was orally administered for 3 days in the dose of 50 mg/kg per day. After the test compound was administered, carbon tetrachloride was intraperitoneally injected in an amount of 100 μl/kg. In this experiment, silymarin was used as the comparative compound. After 24 hours from administration of carbon tetrachloride, blood was taken from the test animal by cardiac perforation and ALT value in serum was determined. The result obtained is described in the following Table 2 (in which ALT value is represented by mean±SE). The ALT unit in serum was determined by centrifuging blood to separate serum as the supernatant, and then the separated serum were subjected to Reitman-Frankel method by means of a commercially available kit (BC101-O,P, Youngdong Pharm.). That is, DL-alanine and α-ketoglutarate were used as the substrate solution to which 2,4-dinitrophenylhydrazine was added to produce hydrazone. Then, sodium hydroxide was added to hydrazone to colorize and then the absorbance was measured at 505 nm.

hepatocyte necrosis [2] = experiment: Effect of inhibiting hepatic disorder induced by carbon tetrachloride: hepatocyte necrosis; format: in vivo, male ICR mice; conditions: CCl4 model, 50 mg/kg per day oral, 3 days; for Degree of necrosis 1: number of animals: grade 1 mild lesion; for Degree of necrosis 2: number of animals: grade 2 moderate lesion; for Degree of necrosis 3: number of animals: grade 3 severe lesion; for Degree of necrosis 4: number of animals: grade 4 diffused lesion
Description: as §1, §2, §3
(§4) In addition, liver was removed from the test animals, stained (×100) with hematoxylin and eosin and then observed by microscope. The degree of hepatocyte necrosis was evaluated according to the following 5 grades: 0 no lesion, 1 mild lesion, 2 moderate lesion, 3 severe lesion and 4 diffused lesion.

[3] = test system: serum ALT (alanine aminotransferase); experiment: Effect of inhibiting hepatic disorder induced by acetaminophen (APAP): serum ALT; format: in vivo, male ICR mice; conditions: APAP 0.5 g/kg oral, compound 50 mg/kg per day oral, 3 days; for Serum ALT value: mean±SE
Description: (§5) In addition, the liver protective effects of the compound of the present invention can also be confirmed by acetaminophen model [see, Wang et al., Toxicology and applied Pharmacology, 136, 146-154, 1996]. Acetaminophen is rapidly metabolized by CYP2E1 to cause hepatic toxicity, which results in structural and functional change in liver cellular membrane, causing necrosis in hepatic lobule, an increase in blood ALT and LDH (lactate dehydrogenase) levels.
as §1
(§6) Effect of inhibiting hepatic disorder induced by acetaminophen (APAP)
(§7) The liver protective effect of the compound according to the present invention was examined according to the known method [see, Wang et al., Toxicology and applied Pharmacology, 136, 146-154, 1996] as specifically described below.
(§8) The compound according to the present invention was suspended in corn oil and the resulting suspension was administered in an amount of 1.0 ml/kg. Each group was composed of 3 to 10 male ICR mice (5-6 weeks) and the test compound was orally administered for 3 days in the dose of 50 mg/kg per day. After 2 hours from the last administration of the test compound, acetaminophen was orally administered in an amount of 0.5 g/kg. In this experiment, silymarin was used as the comparative compound. After 22 hours from the administration of acetaminphen, blood was taken from the individual test animal and ALT and LDH values in serum were determined. The results as obtained are described in the following Tables 4 and 5 (in which ALT and LDH values are represented by mean±SE). In addition, liver was removed from the test animals and then observed according to the same manner as Experiment 3 to evaluate the degree of hepatocyte necrosis.

[4] = test system: serum LDH (lactate dehydrogenase); experiment: Effect of inhibiting hepatic disorder induced by acetaminophen (APAP): serum LDH; format: in vivo, male ICR mice; conditions: APAP 0.5 g/kg oral, compound 50 mg/kg per day oral, 3 days; for Serum LDH value: mean±SE
Description: as §5, §1, §6, §7, §8

hepatocyte necrosis [5] = experiment: Effect of inhibiting hepatic disorder induced by acetaminophen (APAP): hepatocyte necrosis; format: in vivo, male ICR mice; conditions: APAP model, 50 mg/kg per day oral, 3 days; for Degree of necrosis 0: number of animals: grade 0 no lesion; for Degree of necrosis 1: number of animals: grade 1 mild lesion; for Degree of necrosis 2: number of animals: grade 2 moderate lesion; for Degree of necrosis 3: number of animals: grade 3 severe lesion; for Degree of necrosis 4: number of animals: grade 4 diffused lesion
Description: as §1, §4, §7, §8

radiation damage = experiment: Protective effect against radiation damage: survival of mouse; format: in vivo, male ICR mouse; conditions: 100 mg/kg per day, 2 days
Description: Further, the present inventors have confirmed the protective effect of allylthiopyridazine derivative according to the present invention against radiation by administering the active compound to mouse, irradiating the radiation of 8 or 9Gy and, after a certain period, measuring the survival rate of mouse. For example, the survival rate during 30 days of 8Gy radiation can be seen from FIG. 3, and the specific experimental result is described in the following Table 7. Specifically, when 8Gy radiation is used, the survival rate during 30 days in the groups which only radiation was used was merely 48%, whereas the survival rates during 30 days in the groups to which the compounds of Examples 4 and 8 are previously administered were 76% and 70%, respectively. Therefore, it can be noted that the protective effect of the compound according to the present invention against radiation is proven to be a very significant novel discovery.
Protective effect against radiation damage
In order to confirm the protective effect of the compound of the present invention against radiation damage, the following test was conducted.
Male ICR mouse was bred in a chamber to which sterile atmosphere is supplied, at inner temperature 20-23° C. and relative humidity 50% with sufficient water and feed. When the weight of mouse reached 20-25 g, the compound of the present invention was suspended in corn oil and then administered for 2 days in the dose of 100 mg/kg (1 ml/kg) per day. After 3 hours from the last administration of the test compound, 8 or 9 Gy radiation was irradiated to mouse. Specifically, mouse was introduced into a box made of acryl which limited his movement, and then radiation produced from ^60 Co radioactive material was irradiated to whole body at the irradiating rate of 115.8 cGy/min. The dimension of acryl box was 31×31 cm^2, which is the same as the irradiating area of radiation. After 7 days of irradiation of γ-ray, mouse was sacrificed to conduct the histopathologic observation. The result of examining the survival rate during 30 days of irradiation of 8 Gy radiation is shown in FIG. 3, and the result of determining the survival rate after a certain period (10, 13 or 30 days) from irradiation of 8 or 9 Gy radiation is described in the following Table 7.

[6] = test system: microsomal epoxide hydrolase (mEH) and glutathione S-transferases (GST); conditions: literature; cited from earlier work
[7] = literature; cited from earlier work
[8] = literature; cited from earlier work; remark: listed apart in the source
[9] = induced by carbon tetrachloride and acetaminophen; cited from earlier work

Row | Compound | Inhibiting rate (serum ALT) [1] [%] | Serum ALT value [1] [KA unit/l] | Degree of necrosis 1: number of animals (hepatocyte necrosis [2]) | Degree of necrosis 2: number of animals (hepatocyte necrosis [2]) | Degree of necrosis 3: number of animals (hepatocyte necrosis [2]) | Degree of necrosis 4: number of animals (hepatocyte necrosis [2]) | Inhibiting rate (serum ALT) [3] [%] | Serum ALT value [3] [KA unit/l] | Inhibiting rate (serum LDH) [4] [%] | Serum LDH value [4] [KA unit/l] | Degree of necrosis 0: number of animals (hepatocyte necrosis [5]) | Degree of necrosis 1: number of animals (hepatocyte necrosis [5]) | Degree of necrosis 2: number of animals (hepatocyte necrosis [5]) | Degree of necrosis 3: number of animals (hepatocyte necrosis [5]) | Degree of necrosis 4: number of animals (hepatocyte necrosis [5]) | effect on oncogenesis and hepatotoxicity of 1,2-dimethylhydrazine [8] | other results
1 | C=CCSc1ccc(OCC)nn1 [Example 8] | 33 | 6123 ± 2230 | 1 | 2 | 1 | 3 | 99 | 98 ± 26 | 95.6 | 1193 ± 546 | 7 | 0 | 2 | 0 | 0 |  | survival number (radiation damage; 10 days of 9 Gy radiation): 17/23; survival rate (radiation damage; 10 days of 9 Gy radiation): 74%; survival number (radiation damage; 13 days of 9 Gy radiation): 5/23; survival rate (radiation damage; 13 days of 9 Gy radiation): 22%; survival number (radiation damage; 30 days of 8 Gy radiation): 16/23; survival rate (radiation damage; 30 days of 8 Gy radiation): 70%
2 | C=CCSc1ccc(OCCC)nn1 [Example 12, 3-(n-propoxy)-6-allylthiopyridazine] | 40 | 5585 ± 705 | 0 | 2 | 3 | 4 | 25 | 2749 ± 1352 | 59 | 5480 ± 2346 | 0 | 1 | 1 | 1 | 3 |  | Degree of necrosis 0: number of animals (hepatocyte necrosis [2]; grade 0 no lesion): 0
3 | Cc1c(-c2cnccn2)ssc1=S [Oltipraz] |  |  |  |  |  |  |  |  |  |  |  |  |  |  |  |  | expression rate of mEH and GST [6]: increases the expression rate of microsomal epoxide hydrolase (mEH) and glutathione S-transferases (GST); protection of cellular tissue from radiation [7]: protect the cellular tissue from radiation
4 | C=CCS[S+]([O-])CC=C (stereo not drawn) [allicin] |  |  |  |  |  |  |  |  |  |  |  |  |  |  |  | inhibiting oncogenesis due to 1,2-dimethylhydrazine and protecting liver from hepatotoxicity of 1,2-dimethylhydrazine | 
5 | C=CCSCC=C [diallyl sulfide] |  |  |  |  |  |  |  |  |  |  |  |  |  |  |  | inhibiting oncogenesis due to 1,2-dimethylhydrazine and protecting liver from hepatotoxicity of 1,2-dimethylhydrazine | 
6 | CC(C)OC(=O)C(C(=O)OC(C)C)=C1SC=CS1 [malotilate] |  |  |  |  |  |  |  |  |  |  |  |  |  |  |  |  | effect of preventing and treating hepatic diseases [9]: good effect of preventing and treating hepatic diseases induced by carbon tetrachloride and acetaminophen
